The target in one data set is T1, Androgen receptor (AR) (Homo sapiens, UniProt P10275, T878A).
T1 construct: 5.5×10^5 LNCap cells were injected into each well of a 6-well plate; endogenous in cells; host or cells: LNCaP
T1 sequence (P10275 1-920 T878A): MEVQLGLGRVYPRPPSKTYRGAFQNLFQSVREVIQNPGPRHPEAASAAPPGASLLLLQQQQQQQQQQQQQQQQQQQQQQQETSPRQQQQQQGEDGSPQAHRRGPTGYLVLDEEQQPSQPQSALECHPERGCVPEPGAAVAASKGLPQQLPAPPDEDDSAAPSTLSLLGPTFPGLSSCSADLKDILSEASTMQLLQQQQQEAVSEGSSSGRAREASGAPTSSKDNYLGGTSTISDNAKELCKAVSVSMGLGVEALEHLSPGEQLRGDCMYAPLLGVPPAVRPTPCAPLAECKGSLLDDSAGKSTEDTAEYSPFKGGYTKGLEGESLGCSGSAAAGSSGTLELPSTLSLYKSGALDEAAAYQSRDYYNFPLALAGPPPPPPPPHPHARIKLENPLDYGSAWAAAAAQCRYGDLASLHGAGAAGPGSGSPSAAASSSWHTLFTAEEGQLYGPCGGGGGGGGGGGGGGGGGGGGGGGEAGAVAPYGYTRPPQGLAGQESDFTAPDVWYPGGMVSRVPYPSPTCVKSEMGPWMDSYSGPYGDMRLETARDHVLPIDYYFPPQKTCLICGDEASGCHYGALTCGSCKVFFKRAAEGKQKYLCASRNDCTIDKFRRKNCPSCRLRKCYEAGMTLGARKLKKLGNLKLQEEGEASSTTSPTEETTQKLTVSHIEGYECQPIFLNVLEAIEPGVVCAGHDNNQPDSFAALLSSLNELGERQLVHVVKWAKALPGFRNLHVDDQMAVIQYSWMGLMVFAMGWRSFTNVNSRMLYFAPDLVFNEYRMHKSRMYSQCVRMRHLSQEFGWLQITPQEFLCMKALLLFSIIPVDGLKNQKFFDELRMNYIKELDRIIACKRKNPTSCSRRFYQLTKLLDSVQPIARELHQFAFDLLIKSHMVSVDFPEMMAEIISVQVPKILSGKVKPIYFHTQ
The data set is described as follows: Assessment of AR proteolytic activity (Western blotting of LNCap cell lysates). The data set is classed as cell-based. The conditions noted are these: 24 hours of treatment, Western blotting quantified with Image J; for remaining activity at 1 µM: read-out: Degradation (1 μM treated in LNCaP, % AR remaining). The method, boiled down: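 LNCap cells seeded at 5.5×10^5 per well and treated with compound for 24 hours. Lysates prepared in RIPA buffer (pH 7.5, with protease inhibitors). AR protein levels assessed by Western blot with densitometric quantification.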
In general terms: In western blotting, separated proteins are transferred to a membrane and probed.

Another data set relates to VCaP cells. In words: Cytotoxicity assessment (Cell-titer-glo cell viability), VCaP.
The next data set deals with LNCaP cells. In words: Cytotoxicity assessment (Cell-titer-glo cell viability), LNCaP.
[1] abbreviates: Homo sapiens, VCaP, 144 h, read-out: VCaP (CC50, μM).
[2] abbreviates: Homo sapiens, LNCaP, 144 h, read-out: LNCAP (CC50, μM).
Where [3] appears, read: read-out: VCaP (CC50), VCaP cells, 6 days of treatment, Cell-titer-glo, vs DMSO.
Where [4] appears, read: read-out: LNCAP (CC50), LNCaP cells, 6 days of treatment, Cell-titer-glo, vs DMSO.

Where two headings read alike, the source gives them in different places.

Description for VCaP cells: In order to evaluate the androgen receptor (AR) cytotoxicity of the compounds according to the present invention, the following experiment was conducted. Specifically, 1.5×10^3 (LNCaP) or 4×10^3 (VCaP, 22RV1), respectively, of LNCaP, VCaP, and 22RV1 cells were injected into each well of a 96-well plate. The next day, each well was treated with the compound at a final concentration of 3 nM, 10 nM, 30 nM, 100 nM, 300 nM, 1 μM, 3 μM, and 10 μM. […] After 6 days of treatment, Cell-titer-glo (promega) was treated and reacted for 10 minutes, and cell viability was measured with a multimode plate reader (PerkinElmer, Inc.), and the change was quantified compared to when DMSO was treated.

On to `CC1(C)[C@H](NC(=O)c2ccc(N3CCN(CCOC4CCN(c5ccc6nnn(C7CCC(=O)NC7=O)c(=O)c6c5)CC4)CC3)cc2)C(C)(C)[C@H]1Oc1ccc(C#N)c(Cl)c1` (stereo partly shown) [Example 34, N-((1r,3r)-3-(3-chloro-4-cyanophenoxy)-2,2,4,4-tetramethylcyclobutyl)-4-(4-(2-((1-(3-(2,6-dioxopiperidin-3-yl)-4-oxo-3,4-dihydrobenzo[d][1,2,3]triazin-6-yl)piperidin-4-yl)oxy)ethyl)piperazin-1-yl)benzamide], for which, at Androgen receptor (AR), the remaining activity at 1 µM amounted to 11%. Moreover, the 50% cytotoxic concentration (CC50) in the data set on VCaP cells (setting [1]) came to 0.0702 µM; with LNCaP cells (setting [2]) it was 0.523 µM.

Turning to `CC1(C)[C@H](NC(=O)c2ccc(N3CCN(C4CC5(CCN(c6cccc7nnn(C8CCC(=O)NC8=O)c(=O)c67)CC5)C4)CC3)cc2)C(C)(C)[C@H]1Oc1ccc(C#N)c(Cl)c1` (stereo partly shown) [Example 22, N-((1r,3r)-3-(3-chloro-4-cyanophenoxy)-2,2,4,4-tetramethylcyclobutyl)-4-(4-(7-(3-(2,6-dioxopiperidin-3-yl)-4-oxo-3,4-dihydrobenzo[d][1,2,3]triazin-5-yl)-7-azaspiro[3.5]nonan-2-yl)piperazin-1-yl)benzamide], at Androgen receptor (AR), the “Degradation (1 μM treated in LNCaP, % AR remaining)” value stood at 74%. In addition, the results for the CC50 with VCaP cells (setting [3]) and in the data set with LNCaP cells (setting [4]) were 0.135 µM and 13.4 µM, respectively.

As to `CC1(C)C(NC(=O)c2ccc(CCN3CC4CN(C(=O)C5CCN(c6ccc7nnn(C8CCC(=O)NC8=O)c(=O)c7c6)CC5)CC4C3)cc2)C(C)(C)C1Oc1ccc(C#N)c(Cl)c1` (stereo not shown) [Example 93, N-((1r,3r)-3-(3-chloro-4-cyanophenoxy)-2,2,4,4-tetramethylcyclobutyl)-4-(2-(5-(1-(3-(2,6-dioxopiperidin-3-yl)-4-oxo-3,4-dihydrobenzo[d][1,2,3]triazin-6-yl)piperidine-4-carbonyl)hexahydropyrrolo[3,4-c]pyrrol-2(1H)-yl)ethyl)benzamide], the CC50 was 0.0224 µM with VCaP cells (setting [3]) and 0.0515 µM in the data set on LNCaP cells (setting [4]).

As for `CC1(C)C(NC(=O)c2ccc(-n3cc(CC4CCN(C(=O)CNc5ccc6nnn(C7CCC(=O)NC7=O)c(=O)c6c5)CC4)nn3)cc2)C(C)(C)C1Oc1ccc(C#N)c(Cl)c1` (stereo not shown) [Example 106, N-((1r,3r)-3-(3-chloro-4-cyanophenoxy)-2,2,4,4-tetramethylcyclobutyl)-4-(4-((1-((3-(2,6-dioxopiperidin-3-yl)-4-oxo-3,4-dihydrobenzo[d][1,2,3]triazin-6-yl)glycyl)piperidin-4-yl)methyl)-1H-1,2,3-triazol-1-yl)benzamide], the half-maximal cytotoxic concentration (CC50) with VCaP cells (setting [3]) amounted to 0.0113 µM; in the data set with LNCaP cells (setting [4]), 0.0691 µM.

For `CC1(C)[C@H](NC(=O)c2ccc(N3CCN(CCOC4CCN(C(=O)CNc5ccc6nnn(C7CCC(=O)NC7=O)c(=O)c6c5)CC4)CC3)cc2)C(C)(C)[C@H]1Oc1ccc(C#N)c(Cl)c1` (stereo partly shown) [Example 31, N-((1r,3r)-3-(3-chloro-4-cyanophenoxy)-2,2,4,4-tetramethylcyclobutyl)-4-(4-(2-((1-((3-(2,6-dioxopiperidin-3-yl)-4-oxo-3,4-dihydrobenzo[d][1,2,3]triazin-6-yl)glycyl)piperidin-4-yl)oxy)ethyl)piperazin-1-yl)benzamide], the remaining activity at 1 µM at Androgen receptor (AR) came to 5%. For the same molecule, the CC50 with VCaP cells (setting [1]) is 0.0571 µM; with LNCaP cells (setting [2]), 0.852 µM.

Take `CC1(C)C(NC(=O)c2ccc(-n3cc(C4CCN(C(=O)C5CCN(c6ccc7nnn(C8CCC(=O)NC8=O)c(=O)c7c6)CC5)CC4)nn3)cc2)C(C)(C)C1Oc1ccc(C#N)c(Cl)c1` (stereo not shown) [Example 102, N-((1r,3r)-3-(3-chloro-4-cyanophenoxy)-2,2,4,4-tetramethylcyclobutyl)-4-(4-(1-(1-(3-(2,6-dioxopiperidin-3-yl)-4-oxo-3,4-dihydrobenzo[d][1,2,3]triazin-6-yl)piperidine-4-carbonyl)piperidin-4-yl)-1H-1,2,3-triazol-1-yl)benzamide]: the 50% cytotoxic concentration (CC50) in the data set on VCaP cells (setting [3]) turned out to be 0.00588 µM; in the data set with LNCaP cells (setting [4]), 0.0158 µM.

In the case of `CC1(C)C(NC(=O)c2ccc(CCN3CCN(CC4CCN(C(=O)CNc5ccc6nnn(C7CCC(=O)NC7=O)c(=O)c6c5)CC4)CC3)cc2)C(C)(C)C1Oc1ccc(C#N)c(Cl)c1` (stereo not shown) [Example 110, N-((1r,3r)-3-(3-chloro-4-cyanophenoxy)-2,2,4,4-tetramethylcyclobutyl)-4-(2-(4-((1-((3-(2,6-dioxopiperidin-3-yl)-4-oxo-3,4-dihydrobenzo[d][1,2,3]triazin-6-yl)glycyl)piperidin-4-yl)methyl)piperazin-1-yl)ethyl)benzamide], the figures for the CC50 in the data set on VCaP cells (setting [3]) and in the data set with LNCaP cells (setting [4]) were 0.00365 µM and 0.456 µM, respectively.

`CC1(C)C(NC(=O)c2ccc(CCN3CCN(CC4CCN(c5ccc6nnn(C7CCC(=O)NC7=O)c(=O)c6c5)CC4)CC3)cc2)C(C)(C)C1Oc1ccc(C#N)c(Cl)c1` (stereo not shown) [Example 111, N-((1r,3r)-3-(3-chloro-4-cyanophenoxy)-2,2,4,4-tetramethylcyclobutyl)-4-(2-(4-((1-(3-(2,6-dioxopiperidin-3-yl)-4-oxo-3,4-dihydrobenzo[d][1,2,3]triazin-6-yl)piperidin-4-yl)methyl)piperazin-1-yl)ethyl)benzamide]: the half-maximal cytotoxic concentration (CC50) in the data set on VCaP cells (setting [3]) worked out at 0.00229 µM; in the data set on LNCaP cells (setting [4]), 0.0372 µM.

On to `CC1(C)C(NC(=O)c2ccc(C#CC3CCN(CC4CCN(C(=O)C5CCN(c6ccc7nnn(C8CCC(=O)NC8=O)c(=O)c7c6)CC5)CC4)CC3)cc2)C(C)(C)C1Oc1ccc(C#N)c(Cl)c1` (stereo not shown) [Example 97, N-((1r,3r)-3-(3-chloro-4-cyanophenoxy)-2,2,4,4-tetramethylcyclobutyl)-4-((1-((1-(1-(3-(2,6-dioxopiperidin-3-yl)-4-oxo-3,4-dihydrobenzo[d][1,2,3]triazin-6-yl)piperidine-4-carbonyl)piperidin-4-yl)methyl)piperidin-4-yl)ethynyl)benzamide], for which the cytotoxic concentration (CC50) stood at 0.00208 µM in the data set with VCaP cells (setting [3]) and 0.0767 µM in the data set with LNCaP cells (setting [4]).

Turning to `CC1(C)C(NC(=O)c2ccc(CCN3CC4CN(C(=O)C5CN(c6ccc7nnn(C8CCC(=O)NC8=O)c(=O)c7c6)C5)CC4C3)cc2)C(C)(C)C1Oc1ccc(C#N)c(Cl)c1` (stereo not shown) [Example 94, N-((1r,3r)-3-(3-chloro-4-cyanophenoxy)-2,2,4,4-tetramethylcyclobutyl)-4-(2-(5-(1-(3-(2,6-dioxopiperidin-3-yl)-4-oxo-3,4-dihydrobenzo[d][1,2,3]triazin-6-yl)azetidine-3-carbonyl)hexahydropyrrolo[3,4-c]pyrrol-2(1H)-yl)ethyl)benzamide], the results for the CC50 with VCaP cells (setting [3]) and with LNCaP cells (setting [4]) were 0.00784 µM and 0.108 µM, respectively.

In the case of `CC1(C)C(NC(=O)c2ccc(-n3cc(C4CCN(C(=O)CNc5ccc6nnn(C7CCC(=O)NC7=O)c(=O)c6c5)CC4)nn3)cc2)C(C)(C)C1Oc1ccc(C#N)c(Cl)c1` (stereo not shown) [Example 107, N-((1r,3r)-3-(3-chloro-4-cyanophenoxy)-2,2,4,4-tetramethylcyclobutyl)-4-(4-(1-((3-(2,6-dioxopiperidin-3-yl)-4-oxo-3,4-dihydrobenzo[d][1,2,3]triazin-6-yl)glycyl)piperidin-4-yl)-1H-1,2,3-triazol-1-yl)benzamide], the half-maximal cytotoxic concentration (CC50) was 0.00359 µM in the data set on VCaP cells (setting [3]) and 0.0899 µM in the data set on LNCaP cells (setting [4]).

In general, CC50 refers to the concentration at which the toxic effect on the cells reaches its halfway point.

Source of the values: patent publication US20240018123A1, “COMPOUND FOR INHIBITING OR DISINTEGRATING ANDROGEN RECEPTOR, AND PHARMACEUTICAL USE THEREOF” (KOREA RESEARCH INSTITUTE OF CHEMICAL TECHNOLOGY, priority 2020, published 2024).
